Test results: article PMC8518114, “Safety, tolerability and pharmacokinetics of emodepside, a potential novel treatment for onchocerciasis (river blindness), in healthy male subjects” (British Journal of Clinical Pharmacology, 2021)
Read-outs that look alike come from different tables or passages of the source.

Assay: Plasma pharmacokinetics of emodepside, single ascending dose (SAD) and food effect study
Type: in vivo, human
Settings: for AUC 0–24 /D / C max /D: dose-normalised; for t ½ 0–24 (dominant half-life): terminal slope of log concentration–time (0–24 h) curve; for half-life: ln2/λz, read-out: Terminal t ½ (converted); for Tmax: median (range)
Description: Emodepside and placebo were supplied as a LSF and a standard immediate‐release (IR) tablet. The LSF was a 0.1% (w/v) solution containing 1 mg emodepside/mL. Conventional IR tablets containing emodepside in crystalline form were supplied in 2 dosage strengths, 5 and 20 mg, for the single ascending dose (SAD) study.
To preclude any dietary effects on the PK of emodepside, subjects in the fasting cohorts fasted for 9 hours before receiving the IP. Subjects in the fed cohort fasted for 10 hours prior to dosing and received a standard high‐calorie, high‐fat breakfast 30 minutes prior to dosing.
Blood samples (5 mL) were collected by venepuncture or via a cannula into EDTA tubes and immediately placed on ice. Samples were centrifuged at 1500 g for 10 minutes at 4°C. The plasma was aliquoted into 2 polypropylene tubes, which were stored at −20°C. Blood samples for PK analysis were taken at the following time points: • SAD: predose and 0.5, 1, 1.5, 2, 2.5, 3, 4, 5, 6, 8, 12, 24, 36, 48, 72, 96, 120, 144 and 168 hours, and 21 days postdose (cohort 1–9) or predose and 0.5, 1, 3, 6, 8, 12, 24, 36, 48, 72, 96, 120, 144 and 168 hours, and 10, 14, 18 and 21 days postdose (cohort 10). • Multiple ascending dose (MAD), as below: • on Day 1: predose and at 0.25, 0.5, 1, 1.5, 2, 2.5, 3, 4, 6, 8, 12 and 15 hours postdose • on Days 2–9: before the morning dose • on Day 10: before and at 0.25, 0.5, 1, 1.5, 2, 2.5, 3, 4, 6, 8, 12 and 15 hours • on Days 11, 12, 13, 14, 15, 18, 21, 24 and 30.
Emodepside plasma concentrations were determined by a validated high performance liquid chromatography–tandem mass spectrometry assay, using a Alltima C18 5 μm 150 mm x 2.1 mm column and an Applied Biosystems API4000 Turbo Ion Spray detector using positive ion mode. Analyst version 1.3.2 or 1.6.3 software, obtained from AB Sciex UK Ltd, Warrington, UK was used for chromatogram data analysis and quantitative calculations. Deuterated emodepside‐D16 was used as the internal standard. The lower limit of quantitation for emodepside in plasma was 1 ng/mL. Values below this limit were not used to calculate the PK parameters, except values that were below the limit of quantification before Cmax, which were set to zero.
The highest observed plasma concentration (Cmax) was determined directly from concentration–time data, as was the time to reach maximum plasma concentration (tmax). The area under the plasma concentration–time curve from time zero (predose) to the time of last quantifiable concentration (AUC0‐last) was calculated using the linear‐log trapezoidal rule. Elimination half‐life (t1/2) was calculated by the equation ln2/λz.
Statistical analyses were performed using SAS version 9.3 (Cary, NC, USA). Demographic data and baseline characteristics were listed and summarised. […] PK parameters were derived from plasma concentration vs. time data using a noncompartmental analysis in Phoenix WinNonlin version 7 (Certara Inc., Princeton, NJ, USA). Plasma concentration vs. time data and PK parameters were listed, and summarised by treatment, using descriptive statistics. Mean concentrations were calculated only if at least ⅔ of the individual concentrations were above the lower limit of quantification. […] Planned sampling times were used to summarise plasma‐concentration data; actual sampling times were used in the derivation of PK parameters.

[1] = SAD, single oral 1 mg LSF fasting, mean
[2] = SAD, single oral 2.5 mg LSF fasting, mean
[3] = SAD, single oral 5 mg IRT fasting, mean
[4] = SAD, single oral 5 mg LSF fasting, mean
[5] = SAD, single oral 10 mg LSF Fed, mean
[6] = SAD, single oral 10 mg LSF fasting, mean
[7] = SAD, single oral 20 mg IRT fasting, mean
[8] = SAD, single oral 20 mg LSF fasting, mean
[9] = SAD, single oral 40 mg LSF fasting, mean
[10] = human, in vivo, po, 1 mg, SAD, single oral 1 mg LSF fasting, plasma, HPLC-MS/MS, mean
[11] = human, in vivo, po, 2.5 mg, SAD, single oral 2.5 mg LSF fasting, plasma, HPLC-MS/MS, mean
[12] = human, in vivo, po, 5 mg, SAD, single oral 5 mg IRT fasting, plasma, HPLC-MS/MS, mean
[13] = human, in vivo, po, 5 mg, SAD, single oral 5 mg LSF fasting, plasma, HPLC-MS/MS, mean
[14] = human, in vivo, po, 10 mg, SAD, single oral 10 mg LSF Fed, plasma, HPLC-MS/MS, mean
[15] = human, in vivo, po, 10 mg, SAD, single oral 10 mg LSF fasting, plasma, HPLC-MS/MS, mean
[16] = human, in vivo, po, 20 mg, SAD, single oral 20 mg IRT fasting, plasma, HPLC-MS/MS, mean
[17] = human, in vivo, po, 20 mg, SAD, single oral 20 mg LSF fasting, plasma, HPLC-MS/MS, mean
[18] = human, in vivo, po, 40 mg, SAD, single oral 40 mg LSF fasting, plasma, HPLC-MS/MS, mean

Compound: CC(C)C[C@H]1C(=O)O[C@H](Cc2ccc(N3CCOCC3)cc2)C(=O)N(C)[C@@H](CC(C)C)C(=O)O[C@H](C)C(=O)N(C)[C@@H](CC(C)C)C(=O)O[C@H](Cc2ccc(N3CCOCC3)cc2)C(=O)N(C)[C@@H](CC(C)C)C(=O)O[C@H](C)C(=O)N1C [emodepside]
- Plasma emodepside concentrations lower in the first 24 hours postdose, based on geometric mean Cmax (SAD, all dose levels and both formulations): approximately 90%
- AUC0-last in fed relative to fasting conditions (SAD, single 10-mg dose of the LSF): not statistically different
- AUC 0–24 /D [1]: 100 [h.ng/mL]/mg
- C max /D [1]: 18.6 [ng/mL]/mg
- t ½ 0–24 (dominant half-life) [1]: 8.45 h
- AUC 0–24 /D [2]: 100 [h.ng/mL]/mg
- C max /D [2]: 15.0 [ng/mL]/mg
- t ½ 0–24 (dominant half-life) [2]: 10.6 h
- AUC 0–24 /D [3]: 36.5 [h.ng/mL]/mg
- C max /D [3]: 5.15 [ng/mL]/mg
- AUC 0–24 (SAD, single oral 5 mg IRT fasting, plasma, HPLC-MS/MS, mean): 183 ng·h/mL
- t ½ 0–24 (dominant half-life) [3]: 10.8 h
- AUC 0–24 /D [4]: 104 [h.ng/mL]/mg
- C max /D [4]: 18.4 [ng/mL]/mg
- AUC 0–24 (SAD, single oral 5 mg LSF fasting, plasma, HPLC-MS/MS, mean): 522 ng·h/mL
- t ½ 0–24 (dominant half-life) [4]: 11.6 h
- AUC 0–24 /D [5]: 67.3 [h.ng/mL]/mg
- C max /D [5]: 7.19 [ng/mL]/mg
- t ½ 0–24 (dominant half-life) [5]: 11.1 h
- AUC 0–24 /D [6]: 99.6 [h.ng/mL]/mg
- C max /D [6]: 17.2 [ng/mL]/mg
- t ½ 0–24 (dominant half-life) [6]: 10.9 h
- AUC 0–24 /D [7]: 11.2 [h.ng/mL]/mg
- C max /D [7]: 1.51 [ng/mL]/mg
- AUC 0–24 (SAD, single oral 20 mg IRT fasting, plasma, HPLC-MS/MS, mean): 223 ng·h/mL
- t ½ 0–24 (dominant half-life) [7]: 11.3 h
- AUC 0–24 /D [8]: 95.3 [h.ng/mL]/mg
- C max /D [8]: 15.3 [ng/mL]/mg
- AUC 0–24 (SAD, single oral 20 mg LSF fasting, plasma, HPLC-MS/MS, mean): 1910 ng·h/mL
- t ½ 0–24 (dominant half-life) [8]: 10.5 h
- AUC 0–24 /D [9]: 103 [h.ng/mL]/mg
- C max /D [9]: 14.9 [ng/mL]/mg
- AUC last (SAD, single oral 40 mg LSF fasting, plasma, HPLC-MS/MS, mean): 16 400 h.ng/mL
- Half-life during the first 24 hours after dosing (distribution phase) (healthy subjects, oral, across the 2 studies): around 11 hours
- AUC 0–24 h [10]: 100 ng·h/mL
- AUC(0-t) [10]: 182 ng·h/mL
- Cmax [10]: 18.6 ng/mL
- half-life (human, in vivo, po, 1 mg, SAD, single oral 1 mg LSF fasting, plasma, mean): 42.7 h
- Tmax (human, in vivo, po, 1 mg, SAD, single oral 1 mg LSF fasting, plasma): 1 h
- AUC 0–24 h [11]: 250 ng·h/mL
- AUC(0-t) [11]: 845 ng·h/mL
- Cmax [11]: 37.6 ng/mL
- half-life (human, in vivo, po, 2.5 mg, SAD, single oral 2.5 mg LSF fasting, plasma, mean): 449 h
- Tmax (human, in vivo, po, 2.5 mg, SAD, single oral 2.5 mg LSF fasting, plasma): 1 h
- F rel (human, in vivo, po, 5 mg): 35%
- AUC(0-t) [12]: 501 ng·h/mL
- Cmax [12]: 25.7 ng/mL
- half-life (human, in vivo, po, 5 mg, SAD, single oral 5 mg IRT fasting, plasma, mean): 267 h
- Tmax (human, in vivo, po, 5 mg, SAD, single oral 5 mg IRT fasting, plasma): 2 h
- AUC(0-t) [13]: 1700 ng·h/mL
- Cmax [13]: 92.1 ng/mL
- half-life (human, in vivo, po, 5 mg, SAD, single oral 5 mg LSF fasting, plasma, mean): 415 h
- Tmax (human, in vivo, po, 5 mg, SAD, single oral 5 mg LSF fasting, plasma): 1 h
- AUC 0–24 h [14]: 673 ng·h/mL
- AUC(0-t) [14]: 3390 ng·h/mL
- Cmax [14]: 71.9 ng/mL
- half-life (human, in vivo, po, 10 mg, SAD, single oral 10 mg LSF Fed, plasma, mean): 531 h
- Tmax (human, in vivo, po, 10 mg, SAD, single oral 10 mg LSF Fed, plasma): 2.5 h
- AUC 0–24 h [15]: 996 ng·h/mL
- AUC(0-t) [15]: 3070 ng·h/mL
- Cmax [15]: 172 ng/mL
- half-life (human, in vivo, po, 10 mg, SAD, single oral 10 mg LSF fasting, plasma, mean): 365 h
- Tmax (human, in vivo, po, 10 mg, SAD, single oral 10 mg LSF fasting, plasma): 1 h
- AUC(0-t) [16]: 667 ng·h/mL
- Cmax [16]: 30.2 ng/mL
- half-life (human, in vivo, po, 20 mg, SAD, single oral 20 mg IRT fasting, plasma, mean): 348 h
- Tmax (human, in vivo, po, 20 mg, SAD, single oral 20 mg IRT fasting, plasma): 2 h
- AUC(0-t) [17]: 7480 ng·h/mL
- Cmax [17]: 306 ng/mL
- half-life (human, in vivo, po, 20 mg, SAD, single oral 20 mg LSF fasting, plasma, mean): 590 h
- Tmax (human, in vivo, po, 20 mg, SAD, single oral 20 mg LSF fasting, plasma): 1.5 h
- AUC 0–24 h [18]: 4110 ng·h/mL
- Cmax [18]: 595 ng/mL
- half-life (human, in vivo, po, 40 mg, SAD, single oral 40 mg LSF fasting, plasma, mean): 392 h
- Tmax (human, in vivo, po, 40 mg, SAD, single oral 40 mg LSF fasting, plasma): 1.05 h
- Frel, relative bioavailability IR tablet vs. LSF (in vivo): 11.71%
